Values joined by “and” are separate entries in the source; they are usually repeats but may differ in a detail not shown here. Equal entries are not always repeated. Where two headings read alike, the source gives them in different places.
Assays:
[1] = system: cancer cells (all tumor cell lines tested); assay: Cell viability assay (MTT), summary over the cancer cell lines tested; format: cell-based, Human; settings: for PI values, mean over cancer cells: dark vs blue light 458 nm
Method in brief: (§1)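 Viability determined by MTT assay (A570) after 72 h treatment in 0.1% DMSO, with or without a 10 min irradiation at 8 h. Data from at least three independent experiments run in triplicate.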

[2] = Luminescence emission spectra and quantum yield; format: physicochemical; settings: room temperature; reference POPOP in hexane or rhodamine B in ethanol
Method in brief: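 Spectrofluorometric fluorescence/phosphorescence emission spectra of the iridium(III) complexes recorded in CH2Cl2 at room temperature. Quantum yields by the Demas–Crosby relative method on solutions at RT, from integrated emission band areas versus a reference standard of known yield, corrected for solvent refractive index.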

[3] = system: non-tumor cells (NIH-3T3 and MC3T3); assay: Cell viability assay (MTT), summary over the non-tumor models; format: cell-based, Murine; settings: for mean PI value in NIH-3T3 and MC3T3 non-tumoral cells: dark vs blue light 458 nm
Procedure: Cells were grown in humidified incubators at 37° C. in 5% CO2. Murine MC3T3 osteoblast and NIH-3T3 fibroblast cells-used as non-tumor cell models-were cultured in a-MEM medium and DMEM medium supplemented with 10% fetal bovine serum (FBS) and 1% Penicillin/Streptomycin (P/S) antibiotics, respectively. Human T24 bladder, MGHU3 bladder, Scaber bladder, A549 lung, MCF7 breast, MiaPaCa2 pancreas cancer cells were cultured in DMEM medium supplemented with 10% FBS and 1% P/S antibiotics. […] Human Hela cervix and HepG2 liver cancer cells were cultured EMEM medium supplemented with 10% FBS and 1% P/S antibiotics.
MTT reagent (3-(4,5-dimethylthiazol-2-yl)-2,5-diphenyltetrazolium bromide) was used to determine cell death as originally described by Mosmann. Briefly, cells were seeded from 5,000 to 10,000 cells/well in 24-well plates (1 mL) depending on the cell type and allowed to attach overnight. The complexes were prepared in DMSO. The concentration of the complexes was calculated based on the elemental composition of the complexes determined by the elemental analyses. All cell viability experiments were carried out with a fixed concentration of 0.1% (v/v) DMSO. After 72 h of treatment, cells were incubated at 37° C. and 5% CO2 with 25 μL of MTT solution (5 mg/ml; Sigma-Aldrich) in 24-well plates for 3 to 4 h. After solubilization with 500 μL of DMSO, formazan was quantified spectrophotometrically with a microplate reader at 570 nm absorbance (ClarioSTAR, BMG LabTech). […] All the results were calculated from data obtained in at least three independent experiments performed in triplicate.
Two sets of experiments were conducted in parallel for each complex to be studied:
1. The cells were incubated with the different complexes (in the dark) for 72 h.
2. The cells were incubated for 8 h with the different complexes (in the dark), then irradiated for 10 min, followed by an incubation in the dark up to 72 h.

[4] = Lipophilicity: octanol-water partition coefficient, shake-flask method
Method in brief: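 Octanol and water mutually pre-saturated for 24 h; compound ([…] stock in aqueous phase) partitioned against equal volume n-octanol, mixed 15 min, phases separated by centrifugation.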

[5] = system: MC3T3 osteoblast cells (non-tumor); assay: Cell viability assay (MTT), dark and blue light; format: cell-based, Murine; settings: for GI50: read-out: GI50; for Photosensitizing index (PI): MC3T3, dark vs blue light
Method in brief: as §1

[6] = system: NIH-3T3 fibroblast cells (non-tumor); assay: Cell viability assay (MTT), dark and blue light; format: cell-based, Murine; settings: for GI50: read-out: GI50; for Photosensitizing index (PI): NIH-3T3, dark vs blue light
Method in brief: as §1

T24 bladder cancer cells = assay: Cell viability assay (MTT), dark and blue light; format: cell-based, Human; settings: for GI50: read-out: GI50; for Photosensitizing index (PI): T24, dark vs blue light
Method in brief: as §1

[7] = Emission lifetime measurement; format: physicochemical
Method in brief: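 Emission lifetimes measured by time-correlated single-photon counting (0.5 ns time resolution), excitation from a D2 lamp and a 405 nm pulsed diode laser. Estimated error 5% on lifetime.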

[8] = UV/Vis absorption spectra; format: physicochemical; settings: room temperature, air-saturated CH2Cl2 or CH2Cl2/MeOH (1:1), 50 μM; ε in brackets, sh = shoulder
Procedure: UV/Vis absorption spectra were recorded at RT on solutions contained in quartz cuvettes (optical pathlength 1 cm, Hellma®) with a PerkinElmer® UV/VIS/NIR spectrophotometer Lambda 950 and a PerkinElmer® detector UV/VIS/NIR Accessory 2D Detector Module.

[9] = n-octanol/water, shake-flask, mean of at least three determinations

Row | Compound | PI values, mean over cancer cells [1] [fold] | ΦP emission phosphorescence quantum yield [2] [%] | mean PI value in NIH-3T3 and MC3T3 non-tumoral cells [3] [fold] | Log P [4, 9] | GI50 ([5]; MC3T3, blue light) [µM] | Photosensitizing index (PI) [5] | GI50 ([5]; MC3T3, dark) | GI50 ([6]; NIH-3T3, blue light) [µM] | Photosensitizing index (PI) [6] | SI (vs MC3T3) (T24 bladder cancer cells; T24, blue light) | SI (vs NIH-3T3) (T24 bladder cancer cells; T24, blue light) | GI50 (T24 bladder cancer cells; T24, blue light) [µM] | SI (vs NIH-3T3) (T24 bladder cancer cells; T24, dark) | Photosensitizing index (PI) (T24 bladder cancer cells) | τ1 emission lifetime [7] [ns] | λmax (nm) ε (M^−1 · cm^−1) [8] | further results
1 | F[P-](F)(F)(F)(F)F.O=C(NCCCn1cc[n+]2[c]1[Ir-3]13([c]4cccc5ccc6ccc[n+]1c6c45)([c]1cccc4ccc5ccc[n+]3c5c14)[n+]1ccccc1-2)[c-]1cccc1.[Fe+2].c1cc[cH-]c1 [IV-i] | 1.6 | 0.02 | 2.8 | 0.74 ± 0.02 | 10 | 1.0 | 10 µM | 17.8 | 2.3 | 27.2 | 50.4 | 0.35 | 23.2 | 5.1 | 205 | 318 (25600), 413 (7410) nm (M^−1 · cm^−1) | 
2 | F[P-](F)(F)(F)(F)F.O=C(NCCCn1cc[n+]2[c]1[Ir-3]13([c]4ccccc4-c4c5ccccc5cc[n+]41)([c]1ccccc1-c1c4ccccc4cc[n+]13)[n+]1ccccc1-2)[c-]1cccc1.[Fe+2].c1cc[cH-]c1 [IV-h] | 20.1 | 0.07 | 2.8 |  |  | 3.8 | 17.1 µM | 4.4 | 3.0 | 45.0 | 44.0 | 0.1 | 10.2 | 13.0 | 178 | 334 (sh) (19440), 351 (sh) (18355), 380 (12745), 435 (7870) nm (M^−1 · cm^−1) | selectivity for cancer cells over non-tumor cells, in words [1]: most selective effects under irradiated conditions; GI50 ([1]; blue light 458 nm, read-out: GI50 mean over cancer cells, irradiated): 0.155 µM; increase in cell toxicity in cancer cells compared to non-tumor models ([1]; irradiated conditions): 29 fold; GI50 ([3]; blue light 458 nm, read-out: GI50 mean over non-tumor models, irradiated): 4.45 µM; Log P [4]: 0.81 ± 0.07; GI50 (T24 bladder cancer cells; T24, dark): 1.3 µM
3 | F[P-](F)(F)(F)(F)F.O=C(NCCCn1cc[n+]2[c]1[Ir-3]13([c]4ccccc4-c4sc5ccccc5[n+]41)([c]1ccccc1-c1sc4ccccc4[n+]13)[n+]1ccccc1-2)[c-]1cccc1.[Fe+2].c1cc[cH-]c1 [IV-k] | 1.8 | 0.08 | 2.8 | 0.74 ± 0.05 | 5.1 | 2.3 | 10.2 µM and 11.6 µM | 11.6 | 1.6 | 27.0 |  |  | 20.9 | 4.7 | 212 | 321 (24910), 371 (sh) (7200), 407 (5940) nm (M^−1 · cm^−1) | GI50 ([6]; NIH-3T3, dark): 18.7 µM; SI (vs MC3T3) (T24 bladder cancer cells; T24, dark): 11.4
